Reference: patent US20240270762A1, “PENICILLIN-BINDING PROTEIN INHIBITORS” (priority 2021, published 2024)
Converted amounts (≈) assume the structure as drawn.

Columns and labels:
Test in all cases: Liquid broth MIC in Fastidious broth
N. gonorrhoeae WHO X = details: Neisseria gonorrhoeae, read-out: Minimum Inhibitory Concentration, WHO X
N. gonorrhoeae WHO L = details: Neisseria gonorrhoeae, read-out: Minimum Inhibitory Concentration, WHO L
N. gonorrhoeae WHO G = details: Neisseria gonorrhoeae, read-out: Minimum Inhibitory Concentration, WHO G

O=C(NCCCS(=O)(=O)N1CCN(C(=O)NC(C(=O)N[C@H]2Cc3ccc(F)c(C(=O)O)c3OB2O)c2cc(F)c(O)c(O)c2Cl)C1=O)Nc1cccc(O)c1 (stereo partly drawn) [Example 277, (3R)-3-(2-(2-chloro-5-fluoro-3,4-dihydroxyphenyl)-2-(3-((3-(3-(3-hydroxyphenyl)ureido)propyl)sulfonyl)-2-oxoimidazolidine-1-carboxamido)acetamido)-7-fluoro-2-hydroxy-3,4-dihydro-2H-benzo[e][1,2]oxaborinine-8-carboxylic acid]
MIC (N. gonorrhoeae WHO X): > 64 µg/mL | MIC (N. gonorrhoeae WHO L): > 64 µg/mL | MIC (N. gonorrhoeae WHO G): 16 to 32 µg/mL (≈ 19.7 to 39.5 µM)

O=C(NCCCS(=O)(=O)N1CCN(C(=O)NC(C(=O)N[C@H]2Cc3ccc(F)c(C(=O)O)c3OB2O)c2cc(F)c(O)c(O)c2Cl)C1=O)Nc1cccnc1 (stereo partly drawn) [Example 278, (3R)-3-(2-(2-chloro-5-fluoro-3,4-dihydroxyphenyl)-2-(2-oxo-3-((3-(3-(pyridin-3-yl)ureido)propyl)sulfonyl)imidazolidine-1-carboxamido)acetamido)-7-fluoro-2-hydroxy-3,4-dihydro-2H-benzo[e][1,2]oxaborinine-8-carboxylic acid]
MIC (N. gonorrhoeae WHO X): > 64 µg/mL | MIC (N. gonorrhoeae WHO L): > 64 µg/mL | MIC (N. gonorrhoeae WHO G): 16 to 32 µg/mL (≈ 20.1 to 40.2 µM)

O=C(NCCCN1CCN(C(=O)NC(C(=O)N[C@H]2Cc3ccc(F)c(C(=O)O)c3OB2O)c2cc(F)c(O)c(O)c2Cl)C1=O)c1ccc(O)cc1 (stereo partly drawn) [Example 280, (3R)-3-(2-(2-chloro-5-fluoro-3,4-dihydroxyphenyl)-2-(3-(3-(4-hydroxybenzamido)propyl)-2-oxoimidazolidine-1-carboxamido)acetamido)-7-fluoro-2-hydroxy-3,4-dihydro-2H-benzo[e][1,2]oxaborinine-8-carboxylic acid]
MIC (N. gonorrhoeae WHO X): > 64 µg/mL | MIC (N. gonorrhoeae WHO L): > 64 µg/mL | MIC (N. gonorrhoeae WHO G): 16 to 32 µg/mL (≈ 21.9 to 43.7 µM)

O=C(NCCCN1CCN(C(=O)NC(C(=O)N[C@H]2Cc3ccc(F)c(C(=O)O)c3OB2O)c2cc(F)c(O)c(O)c2Cl)C1=O)c1cccnc1 (stereo partly drawn) [Example 281, (3R)-3-(2-(2-chloro-5-fluoro-3,4-dihydroxyphenyl)-2-(3-(3-(nicotinamido)propyl)-2-oxoimidazolidine-1-carboxamido)acetamido)-7-fluoro-2-hydroxy-3,4-dihydro-2H-benzo[e][1,2]oxaborinine-8-carboxylic acid]
MIC (N. gonorrhoeae WHO X): > 64 µg/mL | MIC (N. gonorrhoeae WHO L): > 64 µg/mL | MIC (N. gonorrhoeae WHO G): 16 to 32 µg/mL (≈ 22.3 to 44.6 µM)

O=C(NCCCN1CCN(C(=O)N[C@H](C(=O)N[C@H]2Cc3ccc(F)c(C(=O)O)c3OB2O)c2cc(F)c(O)c(O)c2Cl)C1=O)Nc1ccc(O)cc1 [Example 283, (R)-3-((S)-2-(2-chloro-5-fluoro-3,4-dihydroxyphenyl)-2-(3-(3-(3-(4-hydroxyphenyl)ureido)propyl)-2-oxoimidazolidine-1-carboxamido)acetamido)-7-fluoro-2-hydroxy-3,4-dihydro-2H-benzo[e][1,2]oxaborinine-8-carboxylic acid]
MIC (N. gonorrhoeae WHO X): > 64 µg/mL | MIC (N. gonorrhoeae WHO L): > 64 µg/mL | MIC (N. gonorrhoeae WHO G): > 64 µg/mL

O=C(NCCCN1CCN(C(=O)N[C@@H](C(=O)N[C@H]2Cc3ccc(F)c(C(=O)O)c3OB2O)c2cc(F)c(O)c(O)c2Cl)C1=O)Nc1ccc(O)cc1 [Example 284, (R)-3-((R)-2-(2-chloro-5-fluoro-3,4-dihydroxyphenyl)-2-(3-(3-(3-(4-hydroxyphenyl)ureido)propyl)-2-oxoimidazolidine-1-carboxamido)acetamido)-7-fluoro-2-hydroxy-3,4-dihydro-2H-benzo[e][1,2]oxaborinine-8-carboxylic acid]
MIC (N. gonorrhoeae WHO X): > 64 µg/mL | MIC (N. gonorrhoeae WHO L): 16 to 32 µg/mL (≈ 21.4 to 42.8 µM) | MIC (N. gonorrhoeae WHO G): 4 to 8 µg/mL (≈ 5.36 to 10.7 µM)

O=C(NCCCN1CCN(C(=O)NC(C(=O)N[C@H]2Cc3ccc(F)c(C(=O)O)c3OB2O)c2cc(F)c(O)c(O)c2Cl)C1=O)Nc1ccncc1 (stereo partly drawn) [Example 285, (3R)-3-(2-(2-chloro-5-fluoro-3,4-dihydroxyphenyl)-2-(2-oxo-3-(3-(3-(pyridin-4-yl)ureido)propyl)imidazolidine-1-carboxamido)acetamido)-7-fluoro-2-hydroxy-3,4-dihydro-2H-benzo[e][1,2]oxaborinine-8-carboxylic acid]
MIC (N. gonorrhoeae WHO X): > 64 µg/mL | MIC (N. gonorrhoeae WHO L): > 64 µg/mL | MIC (N. gonorrhoeae WHO G): > 64 µg/mL
